Patent publication EP0291696A2, “Process of multiplication of epithelial cells” (Battelle-Institut e.V., priority 1987, dated 1988)

Legend:
[1] = test system: Keratinozyten; test: Keratinocyte culture: cell count after 12 days and days to confluence (Beispiel 2); type: cell-based, human
[2] = test system: Keratinozyten; test: Keratinocyte culture with FCS or Nu-Serum: cell count after 12 days and days to confluence (Beispiel 3); type: cell-based, human
Excerpt: Kerationozyten wurden durch Trypsinierung von Haut nach der Methode von M. Green (Green, M. et al, PNAS 76 (1979) 5665) gewonnen und in einer Zelldichte von 2,5 x 10 ⁴ Zellen/cm² ausgesät. Die Hautproben in den Beispielen 1, 2 und 3 stammten von Patienten die zwischen 30 und 40 Jahre alt waren. Zusätzlich wurden die Kulturen mit 2 x 10 ⁴ Zellen/cm² letal bestrahlter 3T3-Fibroblasten inokuliert, beschrieben im US-Patent 4,016,036.
Als Medium diente eine Mischung aus DMEM und HAM's F 12 (3:1) mit folgenden Zusätzen: Hydrocortison 0,4 ug/ml Insulin 5 ug/ml Triiodo-Thyronin 2x10⁻⁹M Transferrin 5 ug/ml Adenin 8 x 10⁻⁴ M Gentamycin, Penicillin, Streptomycin je 50 ug/ml Fötales Kälberserum 10 % EGF (nach 2 Tagen) 10 ng/ml
In diesem Experiment, das wie unter Beispiel 1 beschrieben durchgeführt wurde, wurden verschiedene Forskolinkonzentrationen unter Verwendung bzw. in Vergleich von 10 % fötalem Kälberserum (FCS) und einem synthetischen Serum der Firma Biomedica Wien (Nu-Serum Nr. 1) untersucht.

## C=C[C@@]1(C)CC(=O)[C@]2(O)[C@@]3(C)[C@@H](O)CCC(C)(C)[C@@H]3[C@H](O)[C@H](OC(C)=O)[C@@]2(C)O1 [Forskolin]
[1]; 5x10^-5M
  Anzahl der Tage bis zur Konfluenz: 18 Tage
  Zellzahl nach 12 Tagen in einer 25cm^2 Kultur-schale: 13 x 10^5
[1]; 5x10^-6M
  Anzahl der Tage bis zur Konfluenz: 14 Tage
  Zellzahl nach 12 Tagen in einer 25cm^2 Kultur-schale: 23 x 10^5
[1]; 10^-5M
  Anzahl der Tage bis zur Konfluenz: 14 Tage
  Zellzahl nach 12 Tagen in einer 25cm^2 Kultur-schale: 25 x 10^5
[1]; 10^-6M
  Anzahl der Tage bis zur Konfluenz: 18 Tage
  Zellzahl nach 12 Tagen in einer 25cm^2 Kultur-schale: 12 x 10^5
[1]; 10^-7M
  Anzahl der Tage bis zur Konfluenz: 24 Tage
  Zellzahl nach 12 Tagen in einer 25cm^2 Kultur-schale: 8 x 10^5
[1]; 10^-8M
  Zellzahl nach 12 Tagen in einer 25cm^2 Kultur-schale: 2,5 x 10^5
[1]; Forskolin 5 x 10⁻⁶ bzw. 10⁻⁵ in the medium
  Reduction of the Zeit bis zum Erreichen einer konfluenten Keratinozytenkultur im Vergleich zu Cholera Toxin: ≤ 40%
[2]; FCS, 5x10^-5M
  Anzahl der Tage bis zur Konfluenz: 18 Tage
  Zellzahl nach 12 Tagen in einer 25cm^2 Kultur-schale: 16 x 10^5
[2]; FCS, 5x10^-6M
  Anzahl der Tage bis zur Konfluenz: 15 Tage
  Zellzahl nach 12 Tagen in einer 25cm^2 Kultur-schale: 24 x 10^5
[2]; FCS, 10^-5M
  Anzahl der Tage bis zur Konfluenz: 14 Tage
  Zellzahl nach 12 Tagen in einer 25cm^2 Kultur-schale: 32 x 10^5
[2]; FCS, 10^-6M
  Anzahl der Tage bis zur Konfluenz: 20 Tage
  Zellzahl nach 12 Tagen in einer 25cm^2 Kultur-schale: 14 x 10^5
[2]; Nu-Serum, 5x10^-5M
  Anzahl der Tage bis zur Konfluenz: 18 Tage
  Zellzahl nach 12 Tagen in einer 25cm^2 Kultur-schale: 13 x 10^5
[2]; Nu-Serum, 5x10^-6M
  Anzahl der Tage bis zur Konfluenz: 16 Tage
  Zellzahl nach 12 Tagen in einer 25cm^2 Kultur-schale: 25 x 10^5
[2]; Nu-Serum, 10^-5M
  Anzahl der Tage bis zur Konfluenz: 15 Tage
  Zellzahl nach 12 Tagen in einer 25cm^2 Kultur-schale: 27 x 10^5
[2]; Nu-Serum, 10^-6M
  Anzahl der Tage bis zur Konfluenz: 20 Tage
  Zellzahl nach 12 Tagen in einer 25cm^2 Kultur-schale: 14 x 10^5
